In PMC8958501, “Hypothesis-Driven, Structure-Based Design in Photopharmacology: The Case of eDHFR Inhibitors” (Journal of Medicinal Chemistry, 2022):
Read-outs that look alike come from different tables or passages of the source.

What was measured:
E. coli CS1562 = assay: Antibacterial activity assay (MIC, bacterial growth curves); assay type: cell-based, Escherichia coli; conditions: for MIC: Escherichia coli, E. coli CS1562, 24 h
Description: A culture of E. coli CS1562 was grown overnight in LB medium (10 g/L tryptone, 5 g/L yeast extract, 5 g/L NaCl) containing tetracycline (10 μg/mL) at 37 °C. The OD600 was measured, and the culture was diluted to 0.002 OD600 in LB medium. Series dilutions of the compounds were prepared in DMSO and diluted 25 times in sterile LB medium in a black sterile Eppendorf tube. […] Subsequently, the dark samples were added to the 96-well plate (100 μL, triplicates). Lastly, the LB medium containing E. coli CS1562 at 0.002 OD was added to every well (100 μL). The cells were grown overnight at 37 °C in a plate reader (Synergy H1, Biotek), and the OD600 was measured every 10 min with a 10 s shaking step before each measurement. The OD600 curves were background-corrected by subtracting the value at t = 0. […] Detailed data are reported in the SI.

[1] = Thermal cis-to-trans isomerization (thermal half-life of the metastable cis isomer); assay type: physicochemical; conditions: for thermal lifetime t1/2: at 25 and 37 °C; for t1/2 DMSO (25 °C): thermal cis-to-trans isomerization, 20 µM
Description: (§1) UV–vis absorption spectra were recorded on an Agilent 8453 UV–vis Spectrophotometer. Photochemical isomerization (photoswitching) was achieved by irradiation from the side in a fluorescence quartz cuvette (width = 1.0 cm) using a custom-built (Prizmatix/Mountain Photonics) multiwavelength fiber coupled LED system (FC6-LED-WL) including the following LEDs: 365A, 390B, 420Z, 445B, 535R, 630CA. A detailed description of the setup was published by us recently.[84] Alternatively, the samples were irradiated at 340 nm using the LOT Quantum design setup with 300 W Xe-Arc lamp, using the Thorlabs FB340-10 Bandpass filter. A Quantum Northwest TC1 temperature controller was used to maintain the temperature at 25 °C during photochemical studies. To analyze the fatigue resistance of the compounds, repeated irradiation cycles were performed using alternating wavelengths. The decrease and increase of the π–π* transition band was followed by UV–vis spectroscopy (Agilent 8453) at 25 °C while stirring. To determine the thermal lifetime for the metastable cis isomer, samples were irradiated with the custom-built setup until photostationary state (PSS) was reached. Then, the cuvettes were placed in a JASCO V750 spectrophotometer with a PTC 424S/15 temperature controller, and the recovery of the π–π* transition was followed while stirring at 25 °C (for solutions in DMSO and eDHFR assay buffer) or 37 °C (for solutions in 10 mM Tris-HCl buffer pH 7.0). The data were fitted using a first-order exponential function in OriginPro 2018. For the PSD determination by ^1H NMR spectroscopy, 0.5 mL of a 2 mM solution of the respective compound in DMSO-d6 was thermally equilibrated by briefly (∼10 s) heating the sample with a heat gun. Subsequently, the sample was irradiated in a glass NMR tube with a 365 nm hand-held lamp (Spectroline ENB-280C) or the LEDs of the custom-built setup. Detailed data are reported in the SI.

[2] = Solubility in eDHFR assay buffer; assay type: physicochemical; conditions: aqueous with cosolvent or surfactant or cyclodextrin, with 20% DMSO as an additive
eDHFR = target: T1, eDHFR (Escherichia coli, UniProt P0ABQ4); assay: biochemical; conditions: for light-induced change in eDHFR inhibition (dark IC50 vs irradiated IC50): irradiation with λ1 = 365 nm;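 for all read-outs here: purified E. coli DHFR colorimetric assay, enzyme with NADPH 3 min then inhibitor (10^-12 to 10^-5 M) 7 min, rate ΔAbs/s relative to DMSO control (1% v/v), triplicates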
T1 construct: made in house; host or cells: E. cloni EXPRESS BL21 (DE3) cells (Lucigen), pT7-SC1 plasmid
T1 sequence (P0ABQ4 whole entry): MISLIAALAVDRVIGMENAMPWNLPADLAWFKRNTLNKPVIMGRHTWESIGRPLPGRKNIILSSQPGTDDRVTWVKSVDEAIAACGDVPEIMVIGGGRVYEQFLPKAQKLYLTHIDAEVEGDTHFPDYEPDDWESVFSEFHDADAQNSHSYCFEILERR
Description: A 10 mM stock solution of the inhibitor in DMSO was divided into two parts. One half was thermally adapted with a heat gun for 1 min to obtain only the trans isomer.
The compounds were tested as eDHFR inhibitors via a colorimetric assay (Sigma-Aldrich, Catalog No. CS0340). Instead of the human DHFR protein provided in the kit, the in-house purified eDHFR was used. In a 3 mL cuvette, eDHFR (∼20 ng) was incubated with NADPH (60 μM, final) for 3 min, followed by an incubation with the inhibitor (from 10^–5 to 10^–12 M, final) for an additional 7 min. […] The concentration of DMSO in the final volume was 1% v/v for all enzymatic reactions. The measurements were performed in triplicates. For the control enzymatic reactions, eDHFR was incubated with NADPH and DMSO (1% v/v, final). […] The related control enzymatic reaction was also performed under continuous irradiation with λ1 = 390 nm light. Linear regression was performed in Microsoft Excel to calculate ΔAbs/s. % eDHFR activity was calculated as the ratio between ΔAbs/s for the sample and ΔAbs/s for the control reaction. GraphPadPrism 5.0 (GraphPad Software, Inc., version 5.00) was used for the determination of the IC50 of each inhibitor. Nonlinear regression was used for data fitting.

[3] = Fatigue studies: repeated photoisomerization in the presence of GSH; assay type: physicochemical; conditions: eDHFR assay buffer, 10 mM GSH
Description: as §1

[4] = light or radiation study, after irradiation with λ1 = 365 nm, read-out: MIC Light
[5] = light or radiation study, after irradiation, read-out: MIC (µM) after irradiation
[6] = light or radiation study, before irradiation, read-out: MIC (µM) before irradiation
[7] = after irradiation, read-out: DHFR inhibition IC50 (nM) after irradiation
[8] = IC50 Dark, dark-adapted (thermally adapted, trans isomer)
[9] = irradiated to PSS with λ1 (340 nm for 3, 365 nm for 6-15), read-out: IC50 Light

SMILES | melting point | MIC (E. coli CS1562; [4]) | MIC (E. coli CS1562; [5]) | MIC (E. coli CS1562; [6]) | MIC (E. coli CS1562; dark, read-out: MIC Dark) | MIC / bacterial growth inhibition, same in both forms (E. coli CS1562; both before and after irradiation with λ1 = 365 nm, E. coli CS1562) | thermal lifetime t1/2 [1] | t1/2 DMSO (25 °C) [1] | solubility [2] | IC50 (eDHFR; [7]) | IC50 (eDHFR; before irradiation, read-out: DHFR inhibition IC50 (nM) before irradiation) | light-induced change in eDHFR inhibition (dark IC50 vs irradiated IC50) (eDHFR) | fatigue / resistance to reduction upon repeated irradiation cycles [3] | light-induced difference in antibacterial activity (dark MIC vs irradiated MIC) (E. coli CS1562; irradiation with λ1 = 365 nm, E. coli CS1562) | IC50 (eDHFR; [8]) | IC50 (eDHFR; [9]) | IC50 (eDHFR; irradiated with λ1 (1: continuous irradiation at 390 nm), read-out: IC50 Light)
COC(C)(C#Cc1cnc(N)nc1N)c1cccc(/N=N/c2ccccc2)c1 (stereo not drawn) [Compound 7, (E)-5-{3-Methoxy-3-[3-(phenyldiazenyl)phenyl]but-1-yn-1-yl}pyrimidine-2,4-diamine] | 105 to 107 °C | 20 µM | 20 µM | 20 µM | 20 µM | 20 µM | > 24 h | > 24 h | ≤ 5 µM | 250 ± 140 nM | 190 ± 40 nM | not significant | robust photoswitching | – | – | – | –
COC(C)(C#Cc1cnc(N)nc1N)c1ccc(/N=N/c2ccccc2)cc1 (stereo not drawn) [Compound 6, (E)-5-{3-Methoxy-3-[4-(phenyldiazenyl)phenyl]but-1-yn-1-yl}pyrimidine-2,4-diamine] | 149 to 150 °C | 20 µM | 20 µM | > 40 µM | > 40 µM | – | > 24 h | > 24 h | ≤ 5 µM | 160 ± 62 nM | – | 2 fold | robust photoswitching | > 2 fold | 370 nM | 160 ± 62 nM | 160 nM
Nc1ncc(-c2cccc(/N=N/c3ccccc3)c2)c(N)n1 [Compound 3, (E)-5-[3-(Phenyldiazenyl)phenyl]pyrimidine-2,4-diamine] | 209 to 211 °C | – | – | – | – | – | – | > 24 h | – | – | – | – | no sign of fatigue | – | 280 nM | 710 nM | –
